Measured values: patent US20050267182A1, “Urea derivatives as FLT-3 modulators” (Ambit Biosciences Corporation, priority 2003, published 2005)

How the values were obtained:
FLT3 = target: T1, FLT3 (Homo sapiens, UniProt P36888); test: Binding constant (Kd) measurement, phage-displayed kinase competition binding assay; settings: for Binding Assay: FLT3(DKIN): FLT3(DKIN) construct; for Binding Assay: FLT3(JMminus): FLT3(JMminus) construct
T1 construct: FLT3(DKIN); made in house
T1 sequence (P36888 610-943 limits assumed): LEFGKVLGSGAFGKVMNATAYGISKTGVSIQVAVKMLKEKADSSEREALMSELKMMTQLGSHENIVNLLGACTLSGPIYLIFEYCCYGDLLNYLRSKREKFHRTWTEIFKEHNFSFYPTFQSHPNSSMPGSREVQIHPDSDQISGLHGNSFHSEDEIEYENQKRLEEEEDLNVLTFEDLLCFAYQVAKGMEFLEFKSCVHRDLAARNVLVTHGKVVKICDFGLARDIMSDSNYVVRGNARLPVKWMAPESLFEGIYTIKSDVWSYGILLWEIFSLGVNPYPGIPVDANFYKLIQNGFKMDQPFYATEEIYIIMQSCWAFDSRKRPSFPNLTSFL
Excerpt: Binding Constant (Kd) Measurements for Small-Molecule-Kinase Interactions
The term “ND” represents non-determined values.

MV4,11 cells = test: FLT3 assay using MV4,11 cells (cellular proliferation, MTS); type: cell-based, human; settings: cell assay code CS0001
In short: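 MV4,11 AML cells, […] switch to DMEM/10% FBS overnight, plated at 10,000 cells/well and exposed to serially diluted compounds in duplicate for 3 days at 37° C., 5% CO2. Proliferation read by MTS added for 2 h.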

CS0005 = test: Cell Assay: CS0005; type: cell-based; settings: cell assay code CS0005
CS0002 = test: Cell Assay: CS0002; type: cell-based; settings: cell assay code CS0002

Structure (SMILES)	Binding Assay: FLT3(DKIN) (FLT3)	Cell Assay: CS0001:IC50 (MV4,11 cells)	Cell Assay: CS0005:IC50 (CS0005)	Cell Assay: CS0002:IC50 (CS0002)	IC50 (CS0002)	Binding Assay: FLT3(JMminus) (FLT3)	Binding Assay: FLT3(JMplus) (FLT3; FLT3(JMplus) construct)
CC(C)(C)c1cc(NC(=O)Nc2ccc(Nc3nc(Cl)nc4[nH]cnc34)cc2)no1 [Compound O4]	+ + + +	+ + + +	+ + + +	+ +			
CC(C)(C)c1cc(NC(=O)Nc2ccc(NC(=O)c3cccc4nsnc34)cc2)no1 [Compound N109]	+ + + +	+ + + +	+ + +		> 10 µM		
CC(C)(C)c1cc(NC(=O)Nc2ccc(CCc3ccc(N)cc3)cc2)no1 [Compound A3]	+ + + +	+ + + +	+ + + +	+ +			
CC(C)(C)c1cc(NC(=O)Nc2ccc(NC(=O)c3ccc4sccc4c3)cc2)no1 [Compound N122]	+ + + +	+ + + +	+ + + +		> 10 µM		
CC(=O)Oc1cccnc1C(=O)Nc1ccc(NC(=O)Nc2cc(C(C)(C)C)on2)cc1 [Compound N79]		+ + + +	+ + + +	+ +		+ + + +	
Cn1nc(-c2ccccc2)c2cc(C(=O)Nc3ccc(NC(=O)Nc4cc(C(C)(C)C)on4)cc3)sc21 [Compound N5]	+ + + +	+ + + +	+ + + +	+ + +			
CC(C)(C)c1cc(NC(=O)Nc2ccc(NC(=O)c3cccc[n+]3[O-])cc2)no1 [Compound N81]		+ + + +	+ + + +		> 10 µM	+ + + +	
CC(C)(C)c1cc(NC(=O)Nc2ccc(OCc3ccc(F)cc3)cc2)no1 [Compound G35]	+ + + +	+ + + +	+ + +		> 10 µM		
CC(C)(C)c1cc(NC(=O)Nc2ccc(Nc3ncnc4[nH]cnc34)cc2)no1 [Compound O3]	+ + + +	+ + + +	+ + + +	+ +			
Cc1nc(-c2ccc(C(=O)Nc3ccc(NC(=O)Nc4cc(C(C)(C)C)on4)cc3)s2)cs1 [Compound N173]	+ + + +	+ + + +	+ + + +		> 10 µM		
CC(C)(C)c1cc(NC(=O)Nc2ccc(NC(=O)c3cccc(F)n3)cc2)no1 [Compound N8]	+ + + +	+ + + +	+ + + +		> 10 µM		
Cc1nn(C)c(Cl)c1C(=O)Nc1ccc(NC(=O)Nc2cc(C(C)(C)C)on2)cc1 [Compound N116]	+ + + +	+ + + +	+ + + +	+ +			
CC(C)(C)c1cc(NC(=O)Nc2ccc(Nc3nc(N)nc4[nH]cnc34)cc2)no1 [Compound O6]	+ + + +	+ + + +	+ + + +		> 10 µM		
CC(C)(C)c1cc(NC(=O)Nc2ccc(OCc3ccccc3F)cc2)no1 [Compound G12, 1-(4-(2-fluorobenzyloxy)phenyl)-3-(5-tert-butylisoxazol-3-yl)urea]	+ + + +	+ + + +	+ + + +	+ +			
CC(C)(C)c1cc(NC(=O)Nc2ccc(OCCCc3ccncc3)cc2)no1 [Compound G1, 1-(4-(3-(pyridin-4-yl)propoxy)phenyl)-3-(5-tert-butylisoxazol-3-yl)urea]	+ + + +	+ + + +	+ + + +		> 10 µM		
Cc1cccnc1C(=O)Nc1ccc(NC(=O)Nc2cc(C(C)(C)C)on2)cc1 [Compound N41]	+ + + +	+ + + +	+ + + +		> 10 µM		
CC(C)(C)c1cc(NC(=O)Nc2ccc(-c3nc(-c4cccc5ccccc45)no3)cc2)no1 [Compound P5]	+ + + +	+ + + +	+ + +		> 10 µM		
COc1cc(C(=O)Nc2ccc(NC(=O)Nc3cc(C(C)(C)C)on3)cc2)nc2ccccc12 [Compound N137]	+ + + +	+ + + +	+ + +	+ +			
CC(C)(C)c1cc(NC(=O)Nc2ccc(NC(=O)c3ccccn3)cc2)no1 [Compound N188]	+ + + +	+ + + +	+ + + +		> 10 µM	+ + + +	+ + +
Cc1ccc2sc(C(=O)Nc3ccc(NC(=O)Nc4cc(C(C)(C)C)on4)cc3)cc2c1 [Compound N133]	+ + + +	+ + + +	+ + + +	+ +			
CC(C)(C)c1cc(NC(=O)Nc2ccc(OCc3cc(F)cc(F)c3)cc2)no1 [Compound G16]	+ + + +	+ + + +	+ + +	+ +			
CC(C)(C)c1cc(NC(=O)Nc2ccc(OCc3ccc(Cl)cc3)cc2)no1 [Compound G34]	+ + + +	+ + + +	+ + +		> 10 µM		
CC(C)(C)c1cc(NC(=O)Nc2ccc(NC(=O)c3cccc(Cl)n3)cc2)no1 [Compound N4]	+ + + +	+ + + +	+ + + +	+ +			
CC(C)(C)c1cc(NC(=O)Nc2ccc(NC(=O)c3cccc(O)n3)cc2)no1 [Compound N131]	+ + + +	+ + + +	+ + +		> 10 µM		
CC(C)(C)c1cc(NC(=O)Nc2ccc(OCCc3ccccc3F)cc2)no1 [Compound G25]	+ + + +	+ + + +	+ + +	+ +			
CC(C)(C)c1cc(NC(=O)Nc2ccc(OCc3ccccc3Cl)cc2)no1 [Compound G10]	+ + + +	+ + + +	+ + +	+ +			
CC(C)(C)c1cc(NC(=O)Nc2ccc(NC(=O)/C=C/c3ccccc3Cl)cc2)no1 [Compound N40]	+ + + +	+ + + +	+ + + +		> 10 µM		
COc1ccnc(Nc2ccc(C(=O)Nc3ccc(NC(=O)Nc4cc(C(C)(C)C)on4)cc3)cc2)n1 [Compound N51]	+ + + +	+ + + +	+ + + +	+ +			
CC(C)(C)c1cc(NC(=O)Nc2ccc(-c3nc(-c4ccc(Cl)cc4)no3)cc2)no1 [Compound P7]	+ + + +	+ + + +	+ + +		> 10 µM		
